Measured values from patent publication US20250177399A1, “COMBINATION THERAPIES” (MIRATI THERAPEUTICS, INC., priority 2021, published 2025).
Like-named read-outs stand apart in the source and are kept apart here.

Experiments:
H2122 tumors [1] = details: for Average Tumor Volumes of H2122 Tumor Bearing Mice: Compound 478 100 mg/kg, trametinib 1 mg/kg
Procedure: Immunocompromised nude/nude mice were inoculated in the right hind flank with cells or patient derived tumor samples harboring a KRas G12C mutation. When tumor volumes reach between 200-400 mm^3 in size, the mice were divided into four groups of 5-12 mice each. The first group was administered vehicle only. […] The fourth group was orally administered the single agent dose of the KRas G12C inhibitor in combination with the single agent dose of the MEK inhibitor at the matched schedule. […] Tumor volumes were measured using a caliper every two-three days and tumor volumes are calculated by the formula: […].
For example, twenty nude/nude mice were inoculated in the right hind limb with 5×10^6 H2122 cells.

LU99 tumors = test: LU99 tumor model, Compound 478 and RO5126766 alone and in combination; assay type: in vivo, nude/nude mice; details: for Average Tumor Volumes of LU99 Tumor Bearing Mice: p.o. daily, Compound 478 30 mg/kg
Procedure: (§1) Immunocompromised nude/nude mice were inoculated in the right hind flank with cells or patient derived tumor samples harboring a KRas G12C mutation. When tumor volumes reach between 200-400 mm^3 in size, the mice were divided into four groups of 5-12 mice each. The first group was administered vehicle only. […] The fourth group was orally administered the single agent dose of the KRas G12C inhibitor in combination with the single agent dose of the MEK inhibitor at the matched schedule. […] Tumor volumes were measured using a caliper every two-three days and tumor volumes are calculated by the formula: 0.5×(Length×Width)2.

H2122 tumors [2] = test: H2122 tumor model, Compound 478 and RO5126766 alone and in combination; assay type: in vivo, nude/nude mice; details: Compound 478 100 mg/kg p.o daily, RO5126766 0.3 mg/kg p.o Q2D; for tumor growth inhibition: H2122 tumors, at Day 21
Procedure: as §1

SW1573 tumors = test: SW1573 tumor model, Compound 478 and RO5126766 alone and in combination; assay type: in vivo, nude/nude mice; details: Compound 478 100 mg/kg p.o daily, RO5126766 0.3 mg/kg p.o Q2D; for tumor growth inhibition: SW1573 tumors, at Day 20
Procedure: as §1

[3] = Study Day 1, RO5126766 0.3 mg/kg
[4] = Study Day 4, RO5126766 0.3 mg/kg
[5] = Study Day 9, RO5126766 0.3 mg/kg
[6] = Study Day 12, RO5126766 0.3 mg/kg
[7] = Study Day 15, RO5126766 0.3 mg/kg
[8] = Study Day 18, RO5126766 0.3 mg/kg

Structure (SMILES)	Average Tumor Volumes of H2122 Tumor Bearing Mice (H2122 tumors [1]; Study Day 1, p.o. daily) [mm^3]	Average Tumor Volumes of H2122 Tumor Bearing Mice (H2122 tumors [1]; Study Day 7, p.o. daily) [mm^3]	Average Tumor Volumes of H2122 Tumor Bearing Mice (H2122 tumors [1]; Study Day 21, p.o. daily) [mm^3]	Average Tumor Volumes of H2122 Tumor Bearing Mice (H2122 tumors [1]; Study Day 24, p.o. daily) [mm^3]	Average Tumor Volumes of H2122 Tumor Bearing Mice (H2122 tumors [1]; Study Day 32, p.o. daily) [mm^3]	Average Tumor Volumes of LU99 Tumor Bearing Mice (LU99 tumors; [3]) [mm^3]	Average Tumor Volumes of LU99 Tumor Bearing Mice (LU99 tumors; [4]) [mm^3]	Average Tumor Volumes of LU99 Tumor Bearing Mice (LU99 tumors; [5]) [mm^3]	Average Tumor Volumes of LU99 Tumor Bearing Mice (LU99 tumors; [6]) [mm^3]	Average Tumor Volumes of LU99 Tumor Bearing Mice (LU99 tumors; [7]) [mm^3]	Average Tumor Volumes of LU99 Tumor Bearing Mice (LU99 tumors; [8]) [mm^3]	tumor growth inhibition (H2122 tumors [2]) [%]	Average Tumor Volumes of H2122 Tumor Bearing Mice (H2122 tumors [2]; Study Day 0) [mm^3]	Average Tumor Volumes of H2122 Tumor Bearing Mice (H2122 tumors [2]; Study Day 2) [mm^3]	Average Tumor Volumes of H2122 Tumor Bearing Mice (H2122 tumors [2]; Study Day 7) [mm^3]	Average Tumor Volumes of H2122 Tumor Bearing Mice (H2122 tumors [2]; Study Day 9) [mm^3]	Average Tumor Volumes of H2122 Tumor Bearing Mice (H2122 tumors [2]; Study Day 14) [mm^3]	Average Tumor Volumes of H2122 Tumor Bearing Mice (H2122 tumors [2]; Study Day 17) [mm^3]	tumor growth inhibition (SW1573 tumors) [%]	Average Tumor Volumes of SW1573 Tumor Bearing Mice (SW1573 tumors; Study Day 0) [mm^3]	other results
C=C(F)C(=O)N1CCN(c2nc(OC[C@@H]3CCCN3C)nc3c2CCN(c2cccc4cccc(Cl)c24)C3)C[C@@H]1CC#N [Compound 478]	315	233	270	254	287	228.8452	282.5161	219.8962	252.5981	416.0955	495.1032	91	213.447	229.5648	285.0973	326.5344	319.1401	378.2042	52	145.1243	tumor growth regression (H2122 tumors [1]; H2122 tumors, day not given, Compound 478 100 mg/kg p.o. daily): 12%; Average Tumor Volumes of H2122 Tumor Bearing Mice (H2122 tumors [1]; Study Day 35, p.o. daily): 305 mm^3; Average Tumor Volumes of H2122 Tumor Bearing Mice (H2122 tumors [1]; Study Day 38, p.o. daily): 324 mm^3; Average Tumor Volumes of H2122 Tumor Bearing Mice (H2122 tumors [1]; Study Day 42, p.o. daily): 353 mm^3; Average Tumor Volumes of H2122 Tumor Bearing Mice (H2122 tumors [1]; Study Day 45, p.o. daily): 378 mm^3; Average Tumor Volumes of H2122 Tumor Bearing Mice (H2122 tumors [1]; Study Day 49, p.o. daily): 337 mm^3; Average Tumor Volumes of H2122 Tumor Bearing Mice (H2122 tumors [1]; Study Day 56, p.o. daily, dosing stopped on day 56): 371 mm^3; Average Tumor Volumes of H2122 Tumor Bearing Mice (H2122 tumors [1]; Study Day 63, after dosing stopped on day 56): 542 mm^3; Average Tumor Volumes of H2122 Tumor Bearing Mice (H2122 tumors [1]; Study Day 70, after dosing stopped on day 56): 802 mm^3; Average Tumor Volumes of H2122 Tumor Bearing Mice (H2122 tumors [1]; Study Day 77, after dosing stopped on day 56): 1073 mm^3; Average Tumor Volumes of H2122 Tumor Bearing Mice (H2122 tumors [1]; Study Day 85, after dosing stopped on day 56): 1294 mm^3; tumor growth inhibition (LU99 tumors; LU99 tumors, Day 18, Compound 478 30 mg/kg p.o. daily): 81%; Average Tumor Volumes of SW1573 Tumor Bearing Mice (SW1573 tumors; Study Day 3): 201.0648 mm^3; Average Tumor Volumes of SW1573 Tumor Bearing Mice (SW1573 tumors; Study Day 7): 253.1608 mm^3; Average Tumor Volumes of SW1573 Tumor Bearing Mice (SW1573 tumors; Study Day 10): 365.7683 mm^3; Average Tumor Volumes of SW1573 Tumor Bearing Mice (SW1573 tumors; Study Day 13): 394.367 mm^3; Average Tumor Volumes of SW1573 Tumor Bearing Mice (SW1573 tumors; Study Day 17): 486.729 mm^3; Average Tumor Volumes of SW1573 Tumor Bearing Mice (SW1573 tumors; Study Day 20): 534.3942 mm^3
CNS(=O)(=O)Nc1nccc(Cc2c(C)c3ccc(Oc4ncccn4)cc3oc2=O)c1F [RO5126766, 3-[[3-fluoro-2-(methylsulfamoylamino)pyridin-4-yl]methyl]-4-methyl-7-pyrimidin-2-yloxychromen-2-one, reference compound]						232.1134	247.33	158.14	126.8378	181.1358	200.6461	59	212.4101	327.3898	463.4062	474.4923	504.5922	576.573	51	249.5609	tumor regression (LU99 tumors; LU99 tumors, at Day 18, RO5126766 0.3 mg/kg, Compound 478 30 mg/kg p.o. daily): 12%; Average Tumor Volumes of H2122 Tumor Bearing Mice (H2122 tumors [2]; Study Day 21): 772.6155 mm^3; Average Tumor Volumes of SW1573 Tumor Bearing Mice (SW1573 tumors; Study Day 3): 280.2067 mm^3; Average Tumor Volumes of SW1573 Tumor Bearing Mice (SW1573 tumors; Study Day 7): 299.7596 mm^3; Average Tumor Volumes of SW1573 Tumor Bearing Mice (SW1573 tumors; Study Day 10): 395.0633 mm^3; Average Tumor Volumes of SW1573 Tumor Bearing Mice (SW1573 tumors; Study Day 13): 458.1809 mm^3; Average Tumor Volumes of SW1573 Tumor Bearing Mice (SW1573 tumors; Study Day 17): 469.133 mm^3; Average Tumor Volumes of SW1573 Tumor Bearing Mice (SW1573 tumors; Study Day 20): 480.1852 mm^3
CC(=O)Nc1cccc(-n2c(=O)n(C3CC3)c(=O)c3c(Nc4ccc(I)cc4F)n(C)c(=O)c(C)c32)c1 [Trametinib, N-(3-(3-cyclopropyl-5-((2-fluoro-4-iodophenyl)amino)-6,8-dimethyl-2,4,7-trioxo-3,4,6,7-tetrahydropyrido[4,3-d]pyrimidin-1 (2H)-yl)phenyl) acetamide, reference compound]	301	447	667	778	816																tumor growth inhibition (H2122 tumors [1]; H2122 tumors, at Day 32, trametinib 1 mg/kg p.o. daily): 60%; Average Tumor Volumes of H2122 Tumor Bearing Mice (H2122 tumors [1]; Study Day 3, p.o. daily): 385 mm^3; Average Tumor Volumes of H2122 Tumor Bearing Mice (H2122 tumors [1]; Study Day 10, p.o. daily): 462 mm^3; Average Tumor Volumes of H2122 Tumor Bearing Mice (H2122 tumors [1]; Study Day 15, p.o. daily): 534 mm^3; Average Tumor Volumes of H2122 Tumor Bearing Mice (H2122 tumors [1]; Study Day 17, p.o. daily): 582 mm^3; Average Tumor Volumes of H2122 Tumor Bearing Mice (H2122 tumors [1]; Study Day 28, p.o. daily): 673 mm^3
